Our source for the fold change (FC), Activity and EC50 values is ChEMBL document CHEMBL3616426 (Eur J Med Chem, 2015).

Experiment [1] has as its target T1, Estrogen receptor (Homo sapiens) (UniProt P03372).
T1 sequence (whole entry): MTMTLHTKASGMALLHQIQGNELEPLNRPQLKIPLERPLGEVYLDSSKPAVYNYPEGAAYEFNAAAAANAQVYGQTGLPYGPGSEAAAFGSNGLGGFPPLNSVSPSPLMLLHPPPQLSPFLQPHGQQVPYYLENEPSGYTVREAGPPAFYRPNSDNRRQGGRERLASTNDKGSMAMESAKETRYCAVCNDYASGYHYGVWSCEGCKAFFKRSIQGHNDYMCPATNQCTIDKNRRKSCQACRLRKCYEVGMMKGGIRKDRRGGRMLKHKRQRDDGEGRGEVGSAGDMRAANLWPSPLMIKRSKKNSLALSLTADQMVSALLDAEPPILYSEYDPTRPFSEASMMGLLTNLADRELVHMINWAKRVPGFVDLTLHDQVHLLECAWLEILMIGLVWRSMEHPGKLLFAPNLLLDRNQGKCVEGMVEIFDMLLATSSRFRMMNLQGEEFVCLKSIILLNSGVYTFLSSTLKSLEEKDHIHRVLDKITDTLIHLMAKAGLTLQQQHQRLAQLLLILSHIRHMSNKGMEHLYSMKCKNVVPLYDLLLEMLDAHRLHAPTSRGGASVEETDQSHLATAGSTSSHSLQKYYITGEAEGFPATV
Nature of the experiment: Agonist activity at ERalpha (301 to 553 amino acid residues) (unknown origin) assessed as induction of interaction with SRC1 after 24 hrs by yeast two-hybrid assay relative to isopaucifloral F.

The target in experiment [2] is T1, Estrogen receptor (Homo sapiens). Kind of experiment: Antagonist activity at ERalpha (301 to 553 amino acid residues) (unknown origin) assessed as inhibition of E2 induced interaction with SRC1 after 24 hrs by yeast-two-hybrid assay. Set-up: concentration or dose not given beside the values; scale not given: the % may be the effect or the level left.
For a further experiment, the target named is Estrogen receptor beta (Homo sapiens, UniProt Q92731). Nature of the experiment: Agonist activity at ERbeta (248 to 510 amino acid residues) (unknown origin) assessed as induction of interaction with SRC1 after 24 hrs by yeast two-hybrid assay.
Experiment [3] relates to Rattus norvegicus. Kind of experiment: Antiosteoporotic activity in ovariectomized Sprague-Dawley rat assessed as bone volume /tissue volume at 1 ug/kg, po qd at 6th week by micro-CT analysis (reference value: 41.33 +/- 5.04%). The class given is functional.
Experiment [4] deals with Rattus norvegicus. Nature of the experiment: Antiosteoporotic activity in ovariectomized Sprague-Dawley rat assessed as bone volume /tissue volume at 1 ug/kg, po qd at 12th week by micro-CT analysis (reference value: 31.61 +/- 2.39%). The class given is functional.
The subject of experiment [5] is Rattus norvegicus. Nature of the experiment: Antiosteoporotic activity in ovariectomized Sprague-Dawley rat assessed as bone volume /tissue volume at 1 ug/kg, po qd at 18th week by micro-CT analysis (reference value: 27.36 +/- 1.99%). The class given is functional.
Experiment [6] concerns Rattus norvegicus. Nature of the experiment: Antiosteoporotic activity in ovariectomized Sprague-Dawley rat assessed as trabecular thickness at 1 ug/kg, po qd at 6th week by micro-CT analysis (reference value: 0.086 +/- 0.0069 millimeter). Format: functional, Trabecula.
In experiment [7] the test system is Rattus norvegicus. Nature of the experiment: Antiosteoporotic activity in ovariectomized Sprague-Dawley rat assessed as trabecular thickness at 1 ug/kg, po qd at 12th week by micro-CT analysis (reference value: 0.070 +/- 0.0063 millimeter). The class given is functional, Trabecula.
Experiment [8] relates to Rattus norvegicus. Nature of the experiment: Antiosteoporotic activity in ovariectomized Sprague-Dawley rat assessed as trabecular thickness at 1 ug/kg, po qd at 18th week by micro-CT analysis (reference value: 0.103 +/- 0.0044 millimeter). The class given is functional, Trabecula.
The test system of experiment [9] is Rattus norvegicus. Kind of experiment: Antiosteoporotic activity in ovariectomized Sprague-Dawley rat assessed as trabecular separation at 1 ug/kg, po qd at 6th week by micro-CT analysis (reference value: 0.116 +/- 0.010 millimeter). Format: functional, Trabecula.
For experiment [10], the system named is Rattus norvegicus. Kind of experiment: Antiosteoporotic activity in ovariectomized Sprague-Dawley rat assessed as trabecular separation at 1 ug/kg, po qd at 12th week by micro-CT analysis (reference value: 0.146 +/- 0.010 millimeter). Format: functional, Trabecula.
In experiment [11] the test system is Rattus norvegicus. Nature of the experiment: Antiosteoporotic activity in ovariectomized Sprague-Dawley rat assessed as trabecular separation at 1 ug/kg, po qd at 18th week by micro-CT analysis (reference value: 0.234 +/- 0.021 millimeter). The class given is functional, Trabecula.
The test system of experiment [12] is Rattus norvegicus. Nature of the experiment: Antiosteoporotic activity in ovariectomized Sprague-Dawley rat assessed as serum osteocalcin level at 1 ug/kg, po qd at 12th week by enzyme immunoassay (reference value: 1055.8 +/- 14 ng/ml). The class given is functional.
For experiment [13], the system named is Rattus norvegicus. Nature of the experiment: Antiosteoporotic activity in ovariectomized Sprague-Dawley rat assessed as serum osteocalcin level at 1 ug/kg, po qd at 18th week by enzyme immunoassay (reference value: 1118.9 +/- 37.77 ng/ml). The class given is functional.

What is called EC50 is the concentration needed to bring the measured effect to its halfway point.

Estrogen receptor beta, sequence (Q92731 whole entry, the tested form may be a part): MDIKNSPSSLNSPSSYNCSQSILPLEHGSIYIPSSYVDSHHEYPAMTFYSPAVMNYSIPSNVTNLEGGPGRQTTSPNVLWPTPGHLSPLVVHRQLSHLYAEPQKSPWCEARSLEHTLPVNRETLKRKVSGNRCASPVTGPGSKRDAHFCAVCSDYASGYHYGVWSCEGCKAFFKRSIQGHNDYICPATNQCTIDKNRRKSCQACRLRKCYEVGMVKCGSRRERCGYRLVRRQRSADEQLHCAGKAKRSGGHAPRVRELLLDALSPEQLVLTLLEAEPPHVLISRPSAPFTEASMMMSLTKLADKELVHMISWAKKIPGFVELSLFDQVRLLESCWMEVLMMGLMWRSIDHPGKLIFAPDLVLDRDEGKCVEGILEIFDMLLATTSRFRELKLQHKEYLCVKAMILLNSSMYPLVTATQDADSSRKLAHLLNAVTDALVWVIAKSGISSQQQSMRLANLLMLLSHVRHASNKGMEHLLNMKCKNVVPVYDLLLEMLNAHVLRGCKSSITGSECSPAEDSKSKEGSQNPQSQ

Consider `Oc1ccc(C2C(c3cc(O)cc(O)c3)=C(Cc3ccc(Cl)cc3)c3cc(O)cc(O)c32)cc1` (stereo not given), for which the fold change (FC) in experiment [1] was found to be 0.88. In addition, the Activity in experiment [2] was determined as 15.2%. Also, the EC50 at Estrogen receptor beta came to 45.8 µM.
Consider `Cc1ccc([C@@H]2c3c(O)cc(O)cc3[C@H]3[C@H](c4ccc(O)cc4)c4c(O)cc(O)cc4[C@@H]23)cc1`, for which the fold change (FC) in experiment [1] came to 0.99. Besides, the Activity in [2] was determined as 0%. Also, the EC50 on Estrogen receptor beta was found to be 5.65 µM.
As to `Oc1cc(O)c2c(c1)[C@H]1[C@H](c3ccccc3)c3c(O)cc(O)cc3[C@H]1[C@@H]2c1ccccc1`, the fold change (FC) in [1] is 0.86. Also, the Activity in experiment [2] came out at 0%.
Turning to `Oc1cc(O)cc(C2=C(Cc3ccccc3)c3cc(O)cc(O)c3C2c2ccccc2)c1` (stereo not given), the fold change (FC) in experiment [1] was found to be 0.88. The Activity in [2] was 0%.
For the compound `Oc1ccc(/C=C/c2cc(O)cc(O)c2)cc1`, in [1], the fold change (FC) worked out at 0.1. The Activity in experiment [2] came to 0%.
The corresponding values for `Oc1ccc(/C=C2/c3cc(O)cc(O)c3[C@@H](c3ccc(O)cc3)[C@@H]2c2cc(O)cc(O)c2)cc1` are 0.92 and 20.9%.
For `Oc1ccc(C2C(c3cc(O)cc(O)c3)=C(Cc3ccc(F)cc3)c3cc(O)cc(O)c32)cc1` (stereo not given) the same measures were 0.83 and 1.59%.
The corresponding values for `Oc1ccc(C2C(c3cc(O)cc(O)c3)=C(Cc3ccccc3)c3cc(O)cc(O)c32)cc1` (stereo not given) are 0.98 and 2%.
Take `Oc1ccc(CC2=C(c3cc(O)cc(O)c3)C(c3ccc(O)cc3)c3c(O)cc(O)cc32)cc1` (stereo not given): in experiment [1], the fold change (FC) amounted to 0.94. Moreover, the Activity in [2] was determined as 5.84%.
Regarding `Oc1ccc(CC2=C(c3cc(O)cc(O)c3)C(c3ccccc3)c3c(O)cc(O)cc32)cc1` (stereo not given), in experiment [1], the fold change (FC) is 0.86. The Activity in experiment [2] is 8.48%.
For `Oc1ccc([C@@H]2c3c(O)cc(O)cc3[C@H]3[C@H](c4ccc(F)cc4)c4c(O)cc(O)cc4[C@@H]23)cc1` the same measures were 0.95 and 0%.
For `Oc1ccc([C@@H]2c3c(O)cc(O)cc3[C@H]3[C@H](c4ccc(O)cc4)c4c(O)cc(O)cc4[C@@H]23)cc1` the same measures were 1.01 and 5.23%.
With `Oc1ccc([C@@H]2c3c(O)cc(O)cc3[C@H]3[C@H](c4ccccc4)c4c(O)cc(O)cc4[C@@H]23)cc1`, the fold change (FC) in experiment [1] was 0.94. Also, the Activity in experiment [2] was determined as 0.76%.
Consider `O=C1c2cc(O)cc(O)c2[C@@H](c2ccc(F)cc2)[C@@H]1c1cc(O)cc(O)c1` (relative stereo), for which the fold change (FC) in experiment [1] turned out to be 0.94. The Activity in experiment [2] came out at 7.61%.
The corresponding values for `O=C1c2cc(O)cc(O)c2[C@@H](c2ccccc2)[C@@H]1c1cc(O)cc(O)c1` (relative stereo) are 0.97 and 7.59%.
For `Oc1ccc([C@@H]2c3c(O)cc(O)cc3C(O)[C@H]2c2cc(O)cc(O)c2)cc1` (relative stereo) the same measures were 1.04 and 24.5%.
`O=c1c(-c2ccc(O)cc2)coc2cc(O)cc(O)c12` [GENISTEIN]: the Activity in the experiment on Rattus norvegicus [3] came out at 40.5%; with Rattus norvegicus [4], 40.62%; with Rattus norvegicus [5], 41.62%; in the experiment on Rattus norvegicus [6], 0.084 mm; in the experiment on Rattus norvegicus [7] it was 0.079 mm; in the experiment on Rattus norvegicus [8], 0.102 mm. Also, the Activity in the experiment on Rattus norvegicus [9] was 0.125 mm; in the experiment on Rattus norvegicus [10], 0.134 mm; in the experiment with Rattus norvegicus [11], 0.157 mm; in the experiment on Rattus norvegicus [12], 954.33 ng/mL; in the experiment on Rattus norvegicus [13], 882.76 ng/mL.
